Legend:
[1] = molecular target: T1, Tie2 receptor tyrosine kinase (Homo sapiens, UniProt Q02763); test: In vitro receptor tyrosine kinase inhibition assay (Test (a)), ELISA based; assay type: biochemical; settings: recombinant human Tie2 kinase domain
T1 construct: consist of only the intracellular portion C-terminal portion of the respective receptor, within which is found the kinase domain; made in house; host or cells: baculovirus/Sf21 insect cells (or alternative equivalent); used as cleared cell lysate
T1 sequence (Q02763 770-1124 limits assumed): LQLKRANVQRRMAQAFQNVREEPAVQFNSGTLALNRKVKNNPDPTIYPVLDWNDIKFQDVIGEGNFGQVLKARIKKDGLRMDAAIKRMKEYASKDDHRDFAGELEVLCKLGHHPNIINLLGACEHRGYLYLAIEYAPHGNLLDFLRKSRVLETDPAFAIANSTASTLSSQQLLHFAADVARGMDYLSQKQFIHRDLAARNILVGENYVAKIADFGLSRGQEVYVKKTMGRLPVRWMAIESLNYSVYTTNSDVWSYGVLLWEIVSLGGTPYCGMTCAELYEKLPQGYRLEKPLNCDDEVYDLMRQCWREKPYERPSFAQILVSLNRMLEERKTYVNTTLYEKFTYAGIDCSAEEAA
Description: a. In Vitro Receptor Tyrosine Kinase Inhibition Assay
To test for inhibition of Tie2 receptor tyrosine kinase, compounds are evaluated in a non-cell based protein kinase assay by their ability to inhibit the protein kinase enzyme phosphorylation of a tyrosine containing polypeptide substrate in an ELISA based microtitre plate assay. In this particular case, the assay was to determine the IC50, for three different recombinant human tyrosine kinases Tie2, KDR and Flt.
To facilitate production of the tyrosine kinases, recombinant receptor genes were produced using standard molecular biology cloning and mutagenesis techniques. These recombinant proteins fragments encoded within these genes consist of only the intracellular portion C-terminal portion of the respective receptor, within which is found the kinase domain. The recombinant genes encoding the kinase domain containing fragments were cloned and expressed in standard baculovirus/Sf21 system (or alternative equivalent) […]
Constitutive kinase activity of these recombinant proteins was determined by their ability to phosphorylate a synthetic peptide (made up of a random co-polymer of Glutamic Acid, Alanine and Tyrosine in the ratio of 6:3:1). […]
The immobilised phospho-peptide product of the reaction was detected by immunological methods. […] Following extensive washing with PBS-T, HRP activity in each well of the plate was measured colorimetrically using 22′-Azino-di-[3-ethylbenzthiazoline sulfonate (6)]diammonium salt crystals ABTS (Sigma P4922—prepared as per manufactures instructions) as a substrate incubated for 30-45 minutes to allow colour development, before 100 ul of 1M H2SO4 was added to stop the reaction.
Quantification of colour development and thus enzyme activity was achieved by the measurement of absorbance at 405 nm on a Molecular Devices ThermoMax microplate reader. Kinase inhibition for a given compound was expressed as an IC50 value. […] The range of phosphorylation was calculated from the positive (vehicle plus ATP) and negative (vehicle minus ATP) control values.

[2] = molecular target: T2, Tie2 receptor (Homo sapiens, UniProt Q02763); test: Cellular Tie2 autophosphorylation assay (Test (b)); assay type: cell-based; settings: Ang1 ligand stimulated whole cells, e.g. EA.hy926/B3; read-out: IC50 (μM) Test (b): Inhibition of autophosphorylation of Tie2 receptor tyrosine kinase
T2 construct: natural cell lines or primary cells which are known to express the receptor of choice; endogenous in cells; host or cells: EA.hy926/B3 cells (HUVEC named as an alternative)
T2 sequence (Q02763 23-1124): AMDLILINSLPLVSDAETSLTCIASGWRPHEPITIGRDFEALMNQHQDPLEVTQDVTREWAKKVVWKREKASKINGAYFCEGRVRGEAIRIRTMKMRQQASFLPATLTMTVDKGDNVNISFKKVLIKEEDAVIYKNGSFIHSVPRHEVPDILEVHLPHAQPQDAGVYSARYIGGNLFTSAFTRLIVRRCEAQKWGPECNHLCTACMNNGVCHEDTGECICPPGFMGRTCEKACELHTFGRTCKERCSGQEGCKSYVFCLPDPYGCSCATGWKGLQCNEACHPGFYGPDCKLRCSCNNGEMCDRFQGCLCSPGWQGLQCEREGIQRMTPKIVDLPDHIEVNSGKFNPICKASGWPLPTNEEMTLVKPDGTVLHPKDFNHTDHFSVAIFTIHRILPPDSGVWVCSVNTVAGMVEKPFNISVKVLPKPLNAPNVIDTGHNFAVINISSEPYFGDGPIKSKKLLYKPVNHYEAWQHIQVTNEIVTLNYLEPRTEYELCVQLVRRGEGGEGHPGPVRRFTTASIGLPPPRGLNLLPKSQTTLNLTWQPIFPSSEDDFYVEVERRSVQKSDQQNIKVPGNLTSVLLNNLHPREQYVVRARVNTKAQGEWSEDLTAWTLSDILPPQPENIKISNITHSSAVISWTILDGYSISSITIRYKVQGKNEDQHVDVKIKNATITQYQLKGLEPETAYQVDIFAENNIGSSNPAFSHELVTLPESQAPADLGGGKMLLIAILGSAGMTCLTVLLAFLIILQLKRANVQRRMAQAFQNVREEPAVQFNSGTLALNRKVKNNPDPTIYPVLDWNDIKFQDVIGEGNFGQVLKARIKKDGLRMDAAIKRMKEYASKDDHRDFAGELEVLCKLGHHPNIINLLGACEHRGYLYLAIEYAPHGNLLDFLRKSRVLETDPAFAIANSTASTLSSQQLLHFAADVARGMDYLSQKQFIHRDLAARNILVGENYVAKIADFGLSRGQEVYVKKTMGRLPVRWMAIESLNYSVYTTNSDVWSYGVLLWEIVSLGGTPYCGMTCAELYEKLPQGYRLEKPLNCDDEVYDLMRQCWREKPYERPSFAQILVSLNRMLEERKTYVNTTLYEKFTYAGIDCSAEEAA
From the text: b. Cellular Tie2 Autophosphorylation Assay
This assay is based on measuring the ability of compounds to inhibit autophosphorylation of the Tie2 receptor which normally leads to the production of “activated” receptor that in turn initiates the particular signal transduction pathways associated with the receptor function.
Autophosphorylation can be achieved by a number of means. It is known that expression of recombinant kinase domains in baculoviral systems can lead to the production of phosphorylated and activated receptor. It is also reported that over expression of receptors in recombinant cell lines can itself lead to receptor autophosphorylation in the absence of the ligand (Heldin C-H. 1995 Cell: 80, 213-223; Blume-J. P, Hunter T. 2001 Nature: 411, 355-65). Furthermore, there are numerous literature examples in which chimaeric receptors have been constructed. In these cases the natural, external cell surface domain of the receptor has been replaced with that of a domain which is known to be readily dimerised via the addition of the appropriate ligand (e.g. TrkA-Tie2/NGF ligand (Marron, M. B., et al., 2000 Journal of Biological Chemistry: 275:39741-39746) or C-fins-Tie-1/CSF-1 ligand (Kontos, C. D., et al., 2002 Molecular and Cellular Biology: 22, 1704-1713). Thus when the chimaeric receptor expressed in a host cell line and the respective ligand is added, this induces autophosphorylation of the chimeric receptor's kinase domain. This approach has the advantage of often allowing a known (and often easily obtained) ligand to be used instead of having to identify and isolate the natural ligand for each receptor of interest.
Naturally if the ligand is available one can use natural cell lines or primary cells which are known to express the receptor of choice and simply stimulate with ligand to achieve ligand induced phosphorylation. […]

Compound: Cc1cc(NC(=O)Nc2cccc(C#Cc3cnc(N)nc3)c2)on1 [Example 19, N-{3-[(2-aminopyrimidin-5-yl)ethynyl]phenyl}-N′-(3-methylisoxazol-5-yl)urea]
- IC50 [1]: 19.9 µM
- IC50 [2]: 0.337 µM

Compound: CC(C)(C)c1cc(NC(=O)Nc2cccc(C#Cc3cnc(NCCN4CCCC4)nc3)c2)no1 [Example 33, N-(5-tert-butylisoxazol-3-yl)-N′-[3-({2-[(2-pyrrolidin-1-ylethyl)amino]pyrimidin-5-yl}ethynyl)phenyl]urea]
- IC50 [1]: 5.7 µM
- IC50 [2]: 2.59 µM

Compound: CC(C)(C)c1nnc(NC(=O)Nc2cccc(C#Cc3cnc(NCCN4CCCC4)nc3)c2)s1 [Example 48, N-(5-tert-butyl-1,3,4-thiadiazol-2-yl)-N′-[3-({2-[(2-pyrrolidin-1-ylethyl)amino]pyrimidin-5-yl}ethynyl)phenyl]urea]
- IC50 [1]: 74.9 µM
- IC50 [2]: 3.29 µM

From patent US20080108608A1, “Pyrimidines With Tie2 (Tek) Activity” (ASTRAZENECA AB, priority 2003, published 2008)
